The values below come from patent US20070043122A1, “Use of 2,2,3,3, tetramethylcyclopropane carboxylic acid derivatives for treating psychiatric disorders” (YISSUM RESEARCH DEVELOPMENT CO. OF THE HEBREW UNIVERSITY OF …, priority 2003, published 2007).

Data set [1] deals with T1, human brain MIP synthase (Homo sapiens, UniProt Q9NPH2).
T1 construct: supernatant fraction obtained after sonication; from tissue; host or cells: postmortem human prefrontal cortex, 9,000 x g supernatant of sonicated homogenate
T1 sequence (Q9NPH2 1-558): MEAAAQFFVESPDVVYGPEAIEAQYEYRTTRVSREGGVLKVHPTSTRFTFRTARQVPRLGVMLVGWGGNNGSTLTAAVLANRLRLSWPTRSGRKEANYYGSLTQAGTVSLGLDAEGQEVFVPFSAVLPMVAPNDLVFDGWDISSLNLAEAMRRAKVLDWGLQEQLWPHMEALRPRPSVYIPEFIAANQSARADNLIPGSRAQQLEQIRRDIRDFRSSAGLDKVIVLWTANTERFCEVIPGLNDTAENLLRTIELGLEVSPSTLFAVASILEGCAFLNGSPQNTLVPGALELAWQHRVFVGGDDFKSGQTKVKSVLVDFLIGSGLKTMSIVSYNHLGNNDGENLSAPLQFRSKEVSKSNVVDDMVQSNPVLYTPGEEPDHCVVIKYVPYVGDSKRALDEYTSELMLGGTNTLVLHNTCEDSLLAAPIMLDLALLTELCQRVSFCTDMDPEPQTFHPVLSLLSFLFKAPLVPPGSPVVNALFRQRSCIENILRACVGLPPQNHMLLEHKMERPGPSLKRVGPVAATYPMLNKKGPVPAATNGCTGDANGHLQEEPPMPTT
In words: Human brain MIP synthase activity in postmortem prefrontal cortex homogenate. The note with it: for inhibited MIP synthase activity (which of the other psychotropic drugs): at concentrations 1.5 times greater than their upper therapeutic range (concentrations in Table 2); for Ki: human brain homogenate. It is filed as biochemical. The procedure:
Human brain MIP synthase activity. Five μl of the supernatant fraction obtained after sonication (Ultrasonic Processor, Newtown, Conn., 15 sec at 0.1 output watts at 4° C.) and centrifugation for 20 min at 9,000×g at 4° C. of postmortem human prefrontal cortex (1 mg wet weight in 0.5 ml of 50 mM Tris HCl, pH 7.4) were added to 20 μl reaction mixture containing 4 mM D-glucose-6-phosphate, 1.25 μCi D-glucose-6-phosphate [^14C], 1.6 mM NAD^+, 0.45 mM KCl, 5.4 mM MgCl2 and 0.9 mM Tris HCl, pH 7.6, with or without 5 mU IMPase (Sigma, St. Louis). Incubation with or without various drugs concentrations (table 2 and table 3) was carried out for 3 hours (within the linear range) at 37° C. The reaction was stopped by adding 50 μl cold double distilled water (ddH20). Seventy out of the 80 μl were added to test tubes containing 1.25 g strong basic anion resin (Amberjet 4200, Rohm and Haas, Philadelphia) in 1 ml ddH2O. The mixtures were vortexed for 10 min, then centrifugated for 10 min at 10,000×g at room temperature, and 200 μl supernatant taken for ^14C counting (Liquid Scintillation Counter, Kontron, Basel). The enzymatic activity was calculated by subtracting values without IMPase from the measures with IMPase. The measurements were carried out in triplicate.
Table 2 details the drugs and their concentrations compared with their therapeutic concentrations, studied for possible inhibition of human brain MIP synthase activity. Each drug was tested twice, each experiment in triplicate.

The subject of data set [2] is neural tube defects (NTDs). Conditions: in vivo; cited from earlier work.
Data set [3] deals with growth cones of newborn rat dorsal root ganglia (DRG) cells. Conditions: reversed by addition of myo-inositol; cited from earlier work.
The conditions of data set [4]: 400 mg/kg/day IP twice daily for 9 or 28 days; cited from earlier work.
Data set [5] relates to frontal cortex inositol levels. In words: Frontal cortex inositol levels in mice after a single dose of VPA (gas chromatography). It is filed as in vivo. Conditions: acute, single IP dose 300, 600, 800 mg/kg, sacrificed one hour after injection; all concentrations tested. On the procedure:
(§1) Animals. The study was approved by the Ben-Gurion University (Beer Sheva, Israel) Institutional Review Committee for the Use of Animals, and the procedures were carried out in compliance with the declaration of the National Institute of Health Guide for care and use of laboratory animals [Council N R, editor. Guide for the care and use of laboratory animals. Washington, D.C.: National Academy Press; 1996]. […] J Neurochem 1999; 72(2):879-82] which approximate therapeutically-relevant plasma levels. […] Prog Neurobiol 1999; 58(1):31-59]. One saline-injected group was sacrificed right after the injection. All other four groups were sacrificed one hour after the injection. Frontal cortex was removed from all mice right after sacrifice and frozen (−70° C.) till further processing. […] Mice of group II (n=13, controls) were injected saline (IP) twice a day. Animals were then sacrificed, brain removed and dealt as above.
Gas chromatographic measurement of brain inositol levels. Mouse brain free inositol levels were analyzed as trimethylsilyl (TMS) derivatives by gas-liquid chromatography (GC), as described in Shapiro J et al [Shapiro J, Belmaker R H, Beigon A, Seker A, Agam G. Scyllo-Inositol in Post-Mortem Brain of Suicide Victims, Bipolar, Unipolar and Schizophrenic Patients. J Neural Transm 2000; 107: 603-607] using a capillary column. […] Replicate reliability was tested in rat brain. […]

The target of data set [6] is T2, IMPase (Homo sapiens, UniProt P29218).
T2 sequence (P29218 1-277): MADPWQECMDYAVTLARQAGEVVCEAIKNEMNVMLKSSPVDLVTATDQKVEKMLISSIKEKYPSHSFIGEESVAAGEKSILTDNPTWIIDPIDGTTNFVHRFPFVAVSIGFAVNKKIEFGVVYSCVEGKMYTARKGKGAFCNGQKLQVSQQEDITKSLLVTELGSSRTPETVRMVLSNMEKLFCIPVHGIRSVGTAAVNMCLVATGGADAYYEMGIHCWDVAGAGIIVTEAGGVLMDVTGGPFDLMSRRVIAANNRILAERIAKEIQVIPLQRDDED
The note with it: cited from earlier work.

The subject of data set [7] is whole brain inositol levels. The experiment in a line: Whole brain inositol levels in mice after chronic VPA administration. The class given is in vivo. The note with it: for mice whole brain inositol levels: means ± S.E.M. The procedure: as §1
Gas chromatographic measurement of brain inositol levels. Mouse brain free inositol levels were analyzed as trimethylsilyl (TMS) derivatives by gas-liquid chromatography (GC), as described in Shapiro J et al [Shapiro J, Belmaker R H, Beigon A, Seker A, Agam G. Scyllo-Inositol in Post-Mortem Brain of Suicide Victims, Bipolar, Unipolar and Schizophrenic Patients. J Neural Transm 2000; 107: 603-607] using a capillary column. […] Replicate reliability was tested in rat brain. […] Each sample extract was assayed at least in duplicate. The results presented are the average of the replicates. Assays were performed in a blind and balanced design such that each run included samples from all comparison groups.

Data set [8] concerns growth cones of rat DRGs. In words: Growth cone spreading in rat neuron DRG explants. It is filed as cell-based. Conditions: 1 mM, 24 hour exposure. On the procedure: Rat neuron DRG (dorsal root ganglia) explants. […] After 24 hours for attachment, cytosine β-arabinofuranoside (ara-C, 10 μM) was added for 24 hours to kill non-neuronal cells. […] The explants were then fixed in 4% paraformaldehyde in PBS (Phosphate buffered saline) for 20 minutes at room temperature. Growth cones were analysed on an inverted microscope (Zeiss Axiovert) and measured using an NIH Image software.

Read-outs that look alike come from different tables or passages of the source.

For `CNC(=O)C1C(C)(C)C1(C)C` [M-TMCD, N-methyl-2,2,3,3-tetramethylcyclopropanecarboxamide], in data set [1] (read-out: Inhibition of human brain MIP synthase activity), the inhibition (as a rule, the drop in the measured response relative to a control, in per cent) at 1300 µM turned out to be 93%. In data set [2], the teratogenicity entry is “lack of teratogenicity”.

As for `CN(C)CCCN1c2ccccc2Sc2ccc(Cl)cc21` [chlorpromazine], in data set [1], the “inhibited MIP synthase activity (which of the other psychotropic drugs)” value (shortened to “inhibited MIP synthase activity”) is recorded as “None”.

Turning to `O=C1NC(=O)C(c2ccccc2)(c2ccccc2)N1` [phenytoin], in data set [1], the “inhibited MIP synthase activity” value was “None”.

Consider `NC(=O)N1c2ccccc2C=Cc2ccccc21` [carbamazepine], for which the “inhibited MIP synthase activity” value in data set [1] is listed as “None”. In addition, the “effect on spreading of growth cones of newborn rat DRG cells” value in data set [3] is “increased spreading”.

Turning to `CCCC(CCC)C(=O)O` [VPA, valproic acid], in data set [4], the “blood VPA levels” value is 0.27 ± 0.02 mM. The “reduction in frontal cortex inositol concentration” value in data set [5] is on record as 20%. Further, the “effect on IMPase activity” value in data set [6] is reported as “no effect”. Besides, the inhibition at 1000 µM in data set [1] (1.0 mM) stood at 100%. For the same molecule, the Ki (usually the dissociation constant of the complex between target and ligand, obtained from inhibition or displacement) in data set [1] (read-out: Ki for MIP synthase (Dixon's plot)) stood at 210 µM; in data set [1] (read-out: Ki for MIP synthase (Lineweaver-Burk plot)), 240 µM. Besides, the “effect on spreading of growth cones of newborn rat DRG cells” value in data set [3] was “increased spreading”. The “mice whole brain inositol levels” value in data set [7] (IP injection of VPA twice a day, 400-800 mg/kg/day, fourteen days) is reported as 27.9 ± 3.2; in data set [7] (VPA in drinking water (12.5 g/liter) for 11 days), 30.1 ± 1.7. For the same molecule, the “effect of chronic VPA on brain inositol levels” value in data set [7] (eleven days in drinking water or 14 days IP injection) is reported as “did not deplete brain inositol levels”.

On to `O=C(CCCN1CCC(O)(c2ccc(Cl)cc2)CC1)c1ccc(F)cc1` [haloperidol], for which, in data set [1], the “inhibited MIP synthase activity” value is given as “None”.

Turning to `CN(C)CCCN1c2ccccc2CCc2ccc(Cl)cc21` [clomipramine], the “inhibited MIP synthase activity” value in data set [1] is recorded as “None”.

`CN(C)CCCN1c2ccccc2CCc2ccccc21` [imipramine]: the “inhibited MIP synthase activity” value in data set [1] is recorded as “None”.

For `CCCC(CCC)C(N)=O` [VPD, valpromide], the inhibition at 1400 µM in data set [1] (1.4 mM) amounted to 34%. In addition, in data set [8], the “effect on growth cone spreading of DRGs” value is reported as “no increased growth cone spreading”.
